From PubChem BioAssay (NCI)
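How tested: cells in 96-well plates exposed to compound for 48 hours at five concentrations. Definition used: TGI = concentration required for complete inhibition of growth.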

Experiments:
Assay in all cases: NCI anticancer screen, dose series, 48 h
[1] = test system: A498 renal
[2] = test system: UACC-257 melanoma
[3] = test system: TK-10 renal
[4] = test system: SN12C renal
[5] = test system: MDA-MB-231 breast
[6] = test system: EKVX NSCLC
[7] = test system: SNB-19 CNS
[8] = test system: BT-549 breast
[9] = test system: HCT-116 colon
[10] = test system: NCI/ADR-RES ovarian
[11] = test system: KM12 colon
[12] = test system: LOX IMVI melanoma
[13] = test system: OVCAR-5 ovarian
[14] = test system: SNB-75 CNS
[15] = test system: NCI-H522 lung
[16] = test system: HCC-2998 colon
[17] = test system: MALME-3M melanoma
[18] = test system: SF-295 CNS
[19] = test system: SK-MEL-5 melanoma
[20] = test system: IGROV1 ovarian

| SMILES | TGI [1] | TGI [2] | TGI [3] | TGI [4] | TGI [5] | TGI [6] | TGI [7] | TGI [8] | TGI [9] | TGI [10] | TGI [11] | TGI [12] | TGI [13] | TGI [14] | TGI [15] | TGI [16] | TGI [17] | TGI [18] | TGI [19] | TGI [20] |
| --- | --- | --- | --- | --- | --- | --- | --- | --- | --- | --- | --- | --- | --- | --- | --- | --- | --- | --- | --- | --- |
| O=C1N(C2CCCCC2)C(=O)N1C1CCCCC1 | 2.37 µM | 19.4 µM | 38.5 µM | 16.1 µM | 15.6 µM | > 100 µM | 29.9 µM | 5.29 µM | 14.1 µM | 14.9 µM | 15.7 µM | 11.1 µM | 30.2 µM | > 100 µM | 3.66 µM | > 47.3 µM | 11.7 µM | 14.3 µM | 4.88 µM | > 100 µM |
| CN(CC(=O)N1CC(CCl)c2ccc([N+](=O)[O-])cc21)CC(=O)N1CC(CCl)c2ccc([N+](=O)[O-])cc21 (stereo not given) | > 100 µM | > 100 µM | > 100 µM | > 100 µM | > 100 µM | > 100 µM | > 100 µM | > 100 µM | > 100 µM | > 100 µM | > 100 µM | > 100 µM | > 100 µM | > 100 µM | > 100 µM | > 100 µM | > 100 µM | > 100 µM | > 100 µM | > 100 µM |
| COc1cccc2c1C(=O)C1=C(C2=O)C(O)CC(C)(C)O1 (stereo not given) | > 100 µM | 50 µM | > 100 µM | > 100 µM | 87.7 µM | > 100 µM | > 100 µM | > 100 µM | 63 µM | 75.7 µM | 91.2 µM | 57.3 µM | > 100 µM | > 100 µM | 62.8 µM | > 100 µM | 33.7 µM | > 100 µM | 28.3 µM | > 100 µM |
| C=C1C[C@@H]2CC[C@@]34CC5O[C@H]6C(O[C@H]7CC[C@H](CC(=O)O[C@@H]8[C@@H](C)[C@@H]9O[C@@H]%10C[C@]%11(C[C@@H]%12O[C@]%13(C[C@H](C)[C@@H]%14O[C@@H]%15CC(C(O)CO)O[C@@H]%15C[C@@H]%14O%13)C[C@H](C)[C@@H]%12O%11)O[C@@H]%10C[C@@H]9O[C@H]8CC8O[C@@H](CC[C@@H]1O2)C[C@@H](C)C8(O)CO)O[C@@H]7[C@@H]6O3)[C@H]5O4 (stereo not given in full) | > 1 µM | > 1 µM | > 1 µM | > 1 µM | > 1 µM | > 1 µM | > 1 µM | 0.469 µM | > 1 µM | > 1 µM | > 1 µM | > 1 µM | > 1 µM | > 1 µM | 0.614 µM | > 1 µM | > 1 µM | > 1 µM | > 1 µM | > 1 µM |
| COc1ccccc1CCN1CCN(CCCc2ccccc2)CC1 | > 100 µM | > 100 µM | > 100 µM | > 100 µM | > 100 µM | > 100 µM | > 100 µM | > 100 µM | > 100 µM | > 100 µM | > 100 µM | > 100 µM | > 100 µM | > 100 µM | > 100 µM | > 100 µM | > 100 µM | > 100 µM | 45.7 µM | > 100 µM |
| O=C1C=Cc2c(Br)sc(Br)c21 | > 100 µM | > 100 µM | 31.7 µM | > 100 µM | 52.4 µM | 81 µM | > 100 µM | > 100 µM | 77.1 µM | > 100 µM | > 100 µM | 48.4 µM | > 100 µM | > 100 µM | 68.2 µM | 29.2 µM | 64.6 µM | > 100 µM | > 100 µM | 43.5 µM |
| CC(C)(C)c1cc(C(=O)/C=C/c2c(Cl)cccc2Cl)cc(C(C)(C)C)c1O | > 100 µM | 17.6 µM | 41.5 µM | > 75.2 µM | 41.6 µM | 63.3 µM | 29.7 µM | 61.7 µM | 23.2 µM | 77.9 µM | 36.8 µM | 28.3 µM | 35 µM | 34.3 µM | 17.5 µM | 28.1 µM | 37.6 µM | 42.2 µM | 23.9 µM | > 100 µM |
| C1=CC2C=CC(C=C1)P2c1ccccc1 (stereo not given) | > 100 µM | > 100 µM | > 100 µM | > 100 µM | > 100 µM | > 100 µM | > 100 µM | > 100 µM | > 100 µM | > 100 µM | > 100 µM | > 100 µM | > 100 µM | > 100 µM | > 100 µM | > 100 µM | > 100 µM | > 100 µM | > 100 µM | > 100 µM |
| O=C(C1OC1c1ccc(Cl)cc1)C12CC3CC(CC(C3)C1)C2 (stereo not given) | 46.7 µM | 54.7 µM | > 100 µM | 32.2 µM | 54.8 µM | 56.3 µM | > 100 µM | 52.1 µM | 28.8 µM | 49 µM | 41 µM | 16.6 µM | 50.8 µM | 96.1 µM | 42.5 µM | 35.4 µM | 69.8 µM | 58.6 µM | 28.6 µM | 67.4 µM |
